The values below come from patent publication US12448371B2, “Inhibitor compounds” (Cincera Therapeutics Pty Ltd, priority 2019, dated 2025).

Structures can show the parent of a compound that is named as a salt.

What is called IC50 is the concentration needed to halve the response being measured. The term inhibition denotes the drop in the measured response relative to a control, in per cent. Read a low inhibition as a weak effect.

The target of one assay is T1, Des1 (h) (Homo sapiens, UniProt O15121).
T1 construct: endogenous in cells; host or cells: parental Jurkat cells
T1 sequence (O15121 1-323): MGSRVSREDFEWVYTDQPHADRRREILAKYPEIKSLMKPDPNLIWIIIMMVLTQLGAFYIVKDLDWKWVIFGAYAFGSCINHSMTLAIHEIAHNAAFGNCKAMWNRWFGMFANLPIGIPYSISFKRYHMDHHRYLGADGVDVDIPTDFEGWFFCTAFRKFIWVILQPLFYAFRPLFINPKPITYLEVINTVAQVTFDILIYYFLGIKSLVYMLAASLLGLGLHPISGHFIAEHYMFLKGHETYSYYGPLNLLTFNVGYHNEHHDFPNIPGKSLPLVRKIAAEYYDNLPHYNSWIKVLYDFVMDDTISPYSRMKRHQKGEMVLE
Briefly: Measurement of Dihydroceramide Desaturase-1 (Des-1) activity in intact Jurkat cells labeled with DhCer-C6-NBD (HPLC). The settings on record: for IC50: intact Jurkat cells, given as concentration range, or <X / >X if measured at one concentration X only, read-out: Des1 (h) Jurkat IC50. Format: cell-based. As to the method:
Measurement of Dihydroceramide Desaturase-1 (Des-1) Activity
Compounds were assessed for Des-1 inhibitory activity. Measurement of Des1 activity was performed by HPLC using intact Jurkat cells labeled with DhCer-C6-NBD as described previously (Munoz-Olaya, J. M. et al. ChemMedChem 2008, 3, 946-953) with modifications to enhance sensitivity and reproducibility. These modifications included the use of parental Jurkat cells, 0.5% serum in the culture media, and cell harvesting via centrifugation at 500×g to maximise ceramide extraction. Extracted samples (50 ul) were analysed on a Waters HPLC coupled to a fluorescence detector using a 30 cm C18 reverse-phase column eluted with 1 ml/min 20% H2O and 80% acetonitrile, both with a 0.1% of trifluoroacetic acid. NBD-labelled substrate and product were quantitated with an excitation and emission wavelengths of 465 nm and 530 nm, respectively.

For assay [1], the system named is Connective Tissue Growth Factor (CTGF) gene expression. Kind of assay: Real time quantitative PCR in TGFβ-stimulated human hepatic stellate cells (LX2) to detect CTGF gene expression. Format: cell-based. The following applies: CTGF mRNA in TGFβ-stimulated LX2 cells vs vehicle control; for inhibition at 5 µM: LX-2, 5 μM; for inhibition at 1 µM: LX-2, 1 μM. As to the method: Real Time Quantitative Polymerase Chain Reaction in Human Hepatic Stellate Cells (LX2) to Detect Connective Tissue Growth Factor (CTGF) Gene Expression The hepatic stellate cell line, LX2 was maintained in DMEM (LifeTechnologies) with 2% heat-inactivated FBS, 100U penicillin (LifeTechnologies), 0.1 mg/mL streptomycin (LifeTechnologies), and 2 mM L-glutamine (LifeTechnologies) at 37° C. with 5% CO2. Cells were seeded into 6-well plates (200,000 cells per well, 2 mLs media) and grown overnight. The cells were changed to 2 mLs 0.5% FBS media for 24 hours prior to treatment. Treatments were added in 2 mLs fresh 0.5% FBS media (vehicle control, long/mL TGFβ alone (R&D Systems), 10 ng/mL TGFβ+inhibitors) and incubated for 24 hours. […] RNA was extracted using Qiagen RNeasy kit (cat #74104), according to manufacturer's instructions. RNA (1 μg) was used to generate cDNA using the Qiagen Quantitect Reverse Transcription Kit (cat #205311), and stored at -20° C. cDNA was diluted (1:25 final) and combined with Sybr Green (Qiagen cat #204143), forward and reverse primers (50 ng each) and run on Real Time PCR Thermocycler machine (RG-6000, Corbett) with the following PCR conditions: Hold 1: 50° C. for 2 min; Hold 2: 95° C. for 15 min; Cycling: 45 cycles of: 95° C. for 30 sec, 58° C. for 21 sec, 72° C. for 15 sec, Hold 3: 72° C. for 30 sec, Melt: 72° C. to 99° C. GAPDH primers (Forward: [NT]; Reverse: [NT] primers (Forward: [NT]; Reverse: [NT] primers available from Origene, cat #HP205671)].

Take `O=C(NCC(O)CO)c1ccc(Nc2ncc(-c3ccc(Cl)cn3)o2)cn1` (racemic) [Compound 116, rac-5-((5-(5-Chloropyridin-2-yl)oxazol-2-yl)amino)-N-(2,3-dihydroxypropyl)picolinamide hydrochloride]: the IC50 on Des1 (h) is under 1000 nM. Further, the inhibition at 5 µM in assay [1] was 70 to 80%.

Turning to `N/C(=N\O)c1ccc(Nc2ncc(-c3ccc(Cl)cn3)o2)cn1` [Compound 90, 5-((5-(5-Chloropyridin-2-yl)oxazol-2-yl)amino)-N′-hydroxypicolinimidamide], the IC50 on Des1 (h) was under 1000 nM. This compound had an inhibition at 5 µM in assay [1] of over 90%.

On to `N/C(=N\O)c1ccc(Nc2ncc(-c3ccc(OC(F)(F)F)cn3)o2)cn1` [Compound 99, N′-Hydroxy-5-((5-(5-(trifluoromethoxy)pyridin-2-yl)oxazol-2-yl)amino)picolinimidamide], for which the inhibition at 1 µM is 47% against Des1 (h) (Jurkat cells, 1 μM) and 1 to 10% in assay [1]. Further, on Des1 (h), the IC50 is over 1000 nM. The inhibition at 10 µM in assay [1] (LX-2, 10 μM) lay in the range of 70 to 80%.

For the compound `N/C(=N/O)c1cnc(Nc2ncc(-c3ccc(Cl)cn3)o2)cn1` [Compound 102, 5-((5-(5-Chloropyridin-2-yl)oxazol-2-yl)amino)-N′-hydroxypyrazine-2-carboximidamide], the IC50 on Des1 (h) was under 1000 nM. For the same compound, the inhibition at 5 µM in assay [1] fell in the range of 70 to 80%.

On to `N/C(=N/O)c1ccc(Nc2cnn(-c3ccc(Cl)cn3)c2)cn1` [Compound 103, 5-((1-(5-Chloropyridin-2-yl)-1H-pyrazol-4-yl)amino)-N′-hydroxypicolinimidamide], for which, on Des1 (h), the IC50 was under 1000 nM. Also, the inhibition at 5 µM in assay [1] lay in the range of 70 to 80%.

With `N/C(=N\O)c1cnc(Nc2ncn(-c3ccc(C(F)(F)F)cc3)n2)cn1` [Compound 106, N′-Hydroxy-5-((1-(4-(trifluoromethyl)phenyl)-1H-1,2,4-triazol-3-yl)amino)pyrazine-2-carboximidamide], on Des1 (h), the IC50 is under 1000 nM. The compound also registered an inhibition at 1 µM in assay [1] of 30 to 40%.

In the case of `N/C(=N/O)c1ccc(Nc2ncn(-c3ccc(C(F)(F)F)cn3)n2)cn1` [Compound 107, N′-Hydroxy-5-((1-(5-(trifluoromethyl)pyridin-2-yl)-1H-1,2,4-triazol-3-yl)amino)picolinimidamide], the half-maximal inhibitory concentration (IC50) on Des1 (h) is under 1000 nM. For the same compound, the inhibition at 5 µM in assay [1] is over 90%.

Take `N/C(=N/O)c1ccc(Nc2ncc(-c3ccc(C4CC4)cn3)o2)cn1` [Example 62, 5-((5-(5-Cyclopropylpyridin-2-yl)oxazol-2-yl)amino)-N′-hydroxypicolinimidamide]: the inhibition at 1 µM on Des1 (h) (Jurkat cells, 1 μM) came to 42%. In addition, the IC50 at Des1 (h) is over 1000 nM.

On Des1 (h) (Jurkat cells, 1 μM), `N/C(=N\O)c1cnc(Nc2ncc(-c3ccc(C(F)(F)F)cc3)o2)nc1` [Example 63, N′-Hydroxy-2-((5-(4-(trifluoromethyl)phenyl)oxazol-2-yl)amino)pyrimidine-5-carboximidamide] gave an inhibition at 1 µM of 23%. Besides, the IC50 on Des1 (h) is over 1000 nM.

`N/C(=N/O)c1ccc(Nc2ncc(-c3ccc(N4CC(F)(F)C4)cc3)o2)cn1` [Example 64, 5-((5-(4-(3,3-Difluoroazetidin-1-yl)phenyl)oxazol-2-yl)amino)-N′-hydroxypicolinimidamide] registered an inhibition at 1 µM on Des1 (h) (Jurkat cells, 1 μM) of 23%. Further, on Des1 (h), the IC50 is over 1000 nM.

Regarding `N/C(=N/O)c1ccc(Nc2ncc(-c3ncc(C(F)(F)F)cn3)o2)cn1` [Example 65, N′-Hydroxy-5-((5-(5-(trifluoromethyl)pyrimidin-2-yl)oxazol-2-yl)amino)picolinimidamide], at Des1 (h) (Jurkat cells, 1 μM), testing at 1 µM gave an inhibition of 26%. Also, at Des1 (h), the IC50 was over 1000 nM.

With `N/C(=N/O)c1ccc(Nc2ncc(-c3cnc(C(F)(F)F)cn3)o2)cn1` [Example 66, N′-Hydroxy-5-((5-(5-(trifluoromethyl)pyrazin-2-yl)oxazol-2-yl)amino)picolinimidamide], at Des1 (h) (Jurkat cells, 1 μM), the inhibition at 1 µM came out at 47%. For the same compound, at Des1 (h), the half-inhibitory concentration (IC50) is over 1000 nM.

`Oc1ccc(Nc2nnc(-c3ccc(OC(F)(F)F)cc3)o2)nc1` [Example 67, 6-((5-(4-(Trifluoromethoxy)phenyl)-1,3,4-oxadiazol-2-yl)amino)pyridin-3-ol]: at Des1 (h), the IC50 was under 1000 nM.

`O=c1cc(Nc2ncc(-c3ccc(C(F)(F)F)cn3)o2)ccn1O` [Example 68, 1-Hydroxy-4-((5-(5-(trifluoromethyl)pyridin-2-yl)oxazol-2-yl)amino)pyridin-2(1H)-one]: the half-inhibitory concentration (IC50) on Des1 (h) was under 1000 nM.

For `Cl.N=C(NO)c1ccc(Nc2nnc(-c3ccc(C(F)(F)F)cn3)o2)cn1` [Example 69, N′-Hydroxy-5-((5-(5-(trifluoromethyl)pyridin-2-yl)-1,3,4-oxadiazol-2-yl)amino)picolinimidamide], the “% inhibition of Des1 at 1 μM” value on Des1 (h) (Jurkat cells, 1 μM) was “no inhibition”. In addition, the IC50 at Des1 (h) is over 1000 nM.

On Des1 (h) (Jurkat cells, 1 μM), `N/C(=N/O)c1ccc(Nc2nnc(-c3ccc(Cl)cn3)o2)cn1` [Example 71, 5-((5-(5-Chloropyridin-2-yl)-1,3,4-oxadiazol-2-yl)amino)-N′-hydroxypicolinimidamide] gave an inhibition at 1 µM of 13%. Also, on Des1 (h), the IC50 is over 1000 nM.

At Des1 (h) (Jurkat cells, 1 μM), `Cn1nc(-c2ccc(C(F)(F)F)cn2)cc1Nc1ccc(/C(N)=N\O)nc1` [Example 76, N′-Hydroxy-5-((1-methyl-3-(5-(trifluoromethyl)pyridin-2-yl)-1H-pyrazol-5-yl)amino)picolinimidamide] registered an inhibition at 1 µM of 8%. For the same compound, the IC50 at Des1 (h) is over 1000 nM.

Regarding `Cn1nc(-c2ccc(C(F)(F)F)cc2)cc1Nc1ccc(/C(N)=N\O)nc1` [Example 77, N′-Hydroxy-5-((1-methyl-3-(4-(trifluoromethyl)phenyl)-1H-pyrazol-5-yl)amino)picolinimidamide], the inhibition at 1 µM at Des1 (h) (Jurkat cells, 1 μM) was found to be 47%. The IC50 on Des1 (h) was over 1000 nM.

Turning to `N/C(=N\O)c1ccc(Nc2nc(-c3ccc(Cl)cc3)no2)cn1` [Example 78, 5-((3-(4-chlorophenyl)-1,2,4-oxadiazol-5-yl)amino)-N′-hydroxypicolinimidamide], at Des1 (h), the half-inhibitory concentration (IC50) was under 1000 nM.

Turning to `N/C(=N\O)c1cnc(Nc2nc(-c3ccc(Cl)cc3)no2)cn1` [Example 79, 5-((3-(4-chlorophenyl)-1,2,4-oxadiazol-5-yl)amino)-N′-hydroxypyrazine-2-carboximidamide], on Des1 (h), the IC50 is under 1000 nM.

Consider `N/C(=N\O)c1ccc(Nc2nc(-c3ccc(Cl)cn3)no2)cn1` [Example 80, 5-((3-(5-Chloropyridin-2-yl)-1,2,4-oxadiazol-5-yl)amino)-N′-hydroxypicolinimidamide], for which, on Des1 (h) (Jurkat cells, 1 μM), the inhibition at 1 µM worked out at 24%. In addition, at Des1 (h), the half-maximal inhibitory concentration (IC50) was over 1000 nM.

`N/C(=N\O)c1cnc(Nc2nc(-c3ccc(Cl)cn3)no2)cn1` [Example 81, 5-((3-(5-Chloropyridin-2-yl)-1,2,4-oxadiazol-5-yl)amino)-N′-hydroxypyrazine-2-carboximidamide] came in with an inhibition at 1 µM on Des1 (h) (Jurkat cells, 1 μM) of 7%. Further, the IC50 at Des1 (h) was over 1000 nM.

In the case of `N/C(=N\O)c1cnc(Nc2nc(-c3ccc(C(F)(F)F)cc3)no2)cn1` [Example 83, N′-Hydroxy-5-((3-(4-(trifluoromethyl)phenyl)-1,2,4-oxadiazol-5-yl)amino)pyrazine-2-carboximidamide], the IC50 on Des1 (h) is under 1000 nM.

On to `N/C(=N\O)c1cnc(Nc2nc(-c3ccc(C(F)(F)F)cn3)no2)cn1` [Example 85, N′-hydroxy-5-((3-(5-(trifluoromethyl)pyridin-2-yl)-1,2,4-oxadiazol-5-yl)amino)pyrazine-2-carboximidamide], for which 1 µM produced 15% inhibition against Des1 (h) (Jurkat cells, 1 μM). Further, on Des1 (h), the IC50 was over 1000 nM.

`N/C(=N\O)c1ccc(Nc2nc(-c3ccc(OC(F)(F)F)cn3)no2)cn1` [Example 88, N′-hydroxy-5-((3-(5-(trifluoromethoxy)pyridin-2-yl)-1,2,4-oxadiazol-5-yl)amino)picolinimidamide]: on Des1 (h) (Jurkat cells, 1 μM), the inhibition at 1 µM was 29%. Besides, at Des1 (h), the IC50 was over 1000 nM.
